Here are results for 24 compounds from patent publication US10875876B2, “Cyclized sulfamoylarylamide derivatives and the use thereof as medicaments for the treatment of hepatitis B” (priority 2015, dated 2020).

One data set has as its system HBV. The data set is described as follows: anti HBV activity, HepG2.117 cell line, intracellular HBV DNA by realtime PCR. The class given is cell-based. As to conditions: HepG2.117 cell line (Tet-off), 3 days of treatment, intracellular HBV DNA quantified by realtime PCR; read-out: HBV-AVE-HepG2.117 EC50. A digest of the protocol:
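Readout was intracellular HBV DNA by real-time PCR (HBV-specific primers and probe) after 3 days of compound exposure. Serial dilutions were tested in duplicate on HepG2.117 cells, a stable inducible HBV producer in which replication is switched on when doxycycline is absent.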

In a further data set the test system is HepG2 cells. Put plainly: Cytotoxicity in HepG2 cells, Resazurin assay. The following applies: read-out: TOX-HepG2-4 d CC50; HepG2 cells incubated for 4 days, viability by Resazurin assay. For orientation: Alamar Blue is a resazurin reagent that responds to reducing activity.

The term EC50 denotes the midpoint of the concentration-response curve. As usually defined, the CC50 is the concentration giving 50% cytotoxicity. For `Cn1cc2c(c1C(=O)Nc1cc(F)c(F)c(F)c1)CCC(C(C)(C)O)NS2(=O)=O` (single isomer, unassigned) [Compound 149b, 3-(1-hydroxy-1-methyl-ethyl)-7-methyl-1,1-dioxo-N-(3,4,5-trifluorophenyl)-2,3,4,5-tetrahydropyrrolo[3,4-f]thiazepine-6-carboxamide], in the data set on HBV, the EC50 was 10 nM. For the same compound, the half-maximal cytotoxic concentration (CC50) in the data set on HepG2 cells was more than 25000 nM.
Take `Cn1cc2c(c1C(=O)Nc1ccc(F)c(C#N)c1)OCC(C)(CO)NS2(=O)=O` (single isomer, unassigned) [Compound 210b, N-(3-cyano-4-fluoro-phenyl)-3-(hydroxymethyl)-3,7-dimethyl-1,1-dioxo-2,4-dihydropyrrolo[3,4-b][1,4,5]oxathiazepine-6-carboxamide]: the EC50 with HBV turned out to be 34 nM. The CC50 in the data set on HepG2 cells is more than 25000 nM.
Turning to `CC1C/C=C\c2c(cn(C)c2C(=O)Nc2ccc(F)c(F)c2)S(=O)(=O)N1` (single isomer, unassigned) [Compound 15b, (5Z)—N-(3,4-difluorophenyl)-3,8-dimethyl-1,1-dioxo-3,4-dihydro-2H-pyrrolo[3,4-g]thiazocine-7-carboxamide], the EC50 in the data set on HBV was more than 500 nM. The CC50 in the data set on HepG2 cells is more than 25000 nM.
In the case of `CC(NCC(F)(F)F)C1CCc2c(cn(C)c2C(=O)Nc2cc(F)c(F)c(F)c2)S(=O)(=O)N1` (single isomer, unassigned) [Compound 218b, 7-methyl-1,1-dioxo-3-[1-(2,2,2-trifluoroethylamino)ethyl]-N-(3,4,5-trifluorophenyl)-2,3,4,5-tetrahydropyrrolo[3,4-f]thiazepine-6-carboxamide], the EC50 with HBV was 79 nM. In addition, the CC50 in the data set with HepG2 cells is more than 25000 nM.
On to `Cc1cc(NC(=O)c2c3c(cn2C)S(=O)(=O)N[C@@H](C(O)C2CC2)CO3)ccc1F` (single isomer, unassigned) [Compound 206b, 3-[cyclopropyl(hydroxy)methyl]-N-(4-fluoro-3-methyl-phenyl)-7-methyl-1,1-dioxo-3,4-dihydro-2H-pyrrolo[3,4-b][1,4,5]oxathiazepine-6-carboxamide], for which the EC50 in the data set on HBV was 12 nM. Besides, in the data set with HepG2 cells, the CC50 is more than 25000 nM.
In the same order, the values of `CCC(O)[C@@H]1COc2c(cn(C)c2C(=O)Nc2ccc(F)c(C(F)F)c2)S(=O)(=O)N1` (single isomer, unassigned) [Compound 144b, N-[3-(difluoromethyl)-4-fluoro-phenyl]-3-(1-hydroxypropyl)-7-methyl-1,1-dioxo-3,4-dihydro-2H-pyrrolo[3,4-b][1,4,5]oxathiazepine-6-carboxamide] are 63 nM and more than 25000 nM.
For `Cn1cc2c(c1C(=O)Nc1cc(F)c(F)c(F)c1)OCC(C)(CO)NS2(=O)=O` (single isomer, unassigned) [Compound 214b, 3-(hydroxymethyl)-3,7-dimethyl-1,1-dioxo-N-(3,4,5-trifluorophenyl)-2,4-dihydropyrrolo[3,4-b][1,4,5]oxathiazepine-6-carboxamide], in the data set on HBV, the EC50 was determined as 22 nM. Further, the CC50 with HepG2 cells was more than 25000 nM.
For `CCC(O)[C@H]1COc2c(cn(C)c2C(=O)Nc2ccc(F)c(C#N)c2)S(=O)(=O)N1` (stereo partly drawn) [Compound 122b, (3R)—N-(3-cyano-4-fluoro-phenyl)-3-(1-hydroxypropyl)-7-methyl-1,1-dioxo-3,4-dihydro-2H-pyrrolo[3,4-b][1,4,5]oxathiazepine-6-carboxamide], in the data set on HBV, the EC50 stood at 9 nM. In addition, the CC50 in the data set on HepG2 cells is more than 25000 nM.
In the case of `Cn1cc2c(c1C(=O)Nc1ccnc(C(F)F)c1)OCC(C)(CO)NS2(=O)=O` (single isomer, unassigned) [Compound 215b, N-[2-(difluoromethyl)-4-pyridyl]-3-(hydroxymethyl)-3,7-dimethyl-1,1-dioxo-2,4-dihydropyrrolo[3,4-b][1,4,5]oxathiazepine-6-carboxamide], in the data set on HBV, the EC50 is more than 125 nM. The CC50 in the data set with HepG2 cells was more than 25000 nM.
As for `CC(NCC(F)(F)F)C1COc2c(cn(C)c2C(=O)Nc2ccc(F)c(C#N)c2)S(=O)(=O)N1` (single isomer, unassigned) [Compound 161b, N-(3-cyano-4-fluoro-phenyl)-7-methyl-1,1-dioxo-3-[1-(2,2,2-trifluoroethylamino)ethyl]-3,4-dihydro-2H-pyrrolo[3,4-b][1,4,5]oxathiazepine-6-carboxamide], the EC50 in the data set on HBV was more than 125 nM. Further, the CC50 in the data set with HepG2 cells was more than 25000 nM.
Take `CC(C)C1C=Cc2c(cn(C)c2C(=O)Nc2ccc(F)c(F)c2)S(=O)(=O)N1` (single isomer, unassigned) [Compound 79b, N-(3,4-difluorophenyl)-3-isopropyl-7-methyl-1,1-dioxo-2,3-dihydropyrrolo[3,4-f]thiazepine-6-carboxamide]: the EC50 with HBV was 2 nM. For the same compound, the 50% cytotoxic concentration (CC50) in the data set on HepG2 cells is more than 25000 nM.
In the same order, the values of `C[C@@H]1NS(=O)(=O)c2cn(C)c(C(=O)Nc3ccc(F)c(F)c3)c2O[C@@H]1C` [compound 228] are more than 500 nM and more than 25000 nM.
For `CCC1(C)COc2c(cn(C)c2C(=O)Nc2ccc(F)c(F)c2)S(=O)(=O)N1` (single isomer, unassigned) [Compound 134b, N-(3,4-difluorophenyl)-3-ethyl-3,7-dimethyl-1,1-dioxo-2,4-dihydropyrrolo[3,4-b][1,4,5]oxathiazepine-6-carboxamide], the EC50 with HBV was 7 nM. Besides, the CC50 with HepG2 cells is more than 25000 nM.
In the same order, the values of `Cc1cccc(C2(C)COc3c(cn(C)c3C(=O)Nc3ccc(F)c(F)c3)S(=O)(=O)N2)n1` (single isomer, unassigned) [Compound 168b, N-(3,4-difluorophenyl)-3,7-dimethyl-3-(6-methyl-2-pyridyl)-1,1-dioxo-2,4-dihydropyrrolo[3,4-b][1,4,5]oxathiazepine-6-carboxamide] are 15 nM and more than 25000 nM.
The like results for `Cc1cc(CC2(C)COc3c(cn(C)c3C(=O)Nc3ccnc(Cl)c3)S(=O)(=O)N2)no1` (single isomer, unassigned) [Compound 213b, N-(2-chloro-4-pyridyl)-3,7-dimethyl-3-[(5-methylisoxazol-3-yl)methyl]-1,1-dioxo-2,4-dihydropyrrolo[3,4-b][1,4,5]oxathiazepine-6-carboxamide] were, in that order, 16 nM and more than 25000 nM.
With `Cn1cc2c(c1C(=O)Nc1ccc(F)c(F)c1)OCC(C)(c1ncco1)NS2(=O)=O` (single isomer, unassigned) [Compound 160b, N-(3,4-difluorophenyl)-3,7-dimethyl-3-oxazol-2-yl-1,1-dioxo-2,4-dihydropyrrolo[3,4-b][1,4,5]oxathiazepine-6-carboxamide], the EC50 in the data set on HBV was 21 nM. The CC50 in the data set on HepG2 cells is more than 25000 nM.
For `Cc1cc(CC2(C)COc3c(cn(C)c3C(=O)Nc3ccc(F)c(F)c3)S(=O)(=O)N2)no1` (single isomer, unassigned) [Compound 162b, N-(3,4-difluorophenyl)-3,7-dimethyl-3-[(5-methylisoxazol-3-yl)methyl]-1,1-dioxo-2,4-dihydropyrrolo[3,4-b][1,4,5]oxathiazepine-6-carboxamide], the EC50 with HBV was 11 nM. The CC50 in the data set on HepG2 cells was more than 25000 nM.
As to `CC1CCc2c(cn(C)c2C(=O)Nc2ccc(F)c(F)c2)S(=O)(=O)N1` (single isomer, unassigned) [Compound 10b, N-(3,4-difluorophenyl)-3,7-dimethyl-1,1-dioxo-2,3,4,5-tetrahydropyrrolo[3,4-f]thiazepine-6-carboxamide], the EC50 in the data set with HBV amounted to 6 nM. Besides, the CC50 in the data set with HepG2 cells was more than 25000 nM.
As for `Cn1cc2c(c1C(=O)Nc1ccnc(C(F)(F)F)c1)CCC(C(F)(F)F)NS2(=O)=O` (single isomer, unassigned) [Compound 59b, 7-methyl-1,1-dioxo-3-(trifluoromethyl)-N-[2-(trifluoromethyl)-4-pyridyl]-2,3,4,5-tetrahydropyrrolo[3,4-f]thiazepine-6-carboxamide], the EC50 in the data set with HBV worked out at 140 nM. Besides, the CC50 in the data set with HepG2 cells was more than 25000 nM.
As to `Cn1cc2c(c1C(=O)Nc1ccc(F)c(F)c1)OCC(C)(c1cnccn1)NS2(=O)=O` (single isomer, unassigned) [Compound 145b, N-(3,4-difluorophenyl)-3,7-dimethyl-1,1-dioxo-3-pyrazin-2-yl-2,4-dihydropyrrolo[3,4-b][1,4,5]oxathiazepine-6-carboxamide], the EC50 in the data set on HBV was 60 nM. The CC50 in the data set with HepG2 cells was more than 25000 nM.
On to `Cn1cc2c(c1C(=O)Nc1cc(F)c(F)c(F)c1)OC[C@H](C(O)C1CC1)NS2(=O)=O` (single isomer, unassigned) [Compound 208b, 3-[cyclopropyl(hydroxy)methyl]-7-methyl-1,1-dioxo-N-(3,4,5-trifluorophenyl)-3,4-dihydro-2H-pyrrolo[3,4-b][1,4,5]oxathiazepine-6-carboxamide], for which, in the data set on HBV, the EC50 came to 11 nM. In the data set with HepG2 cells, the CC50 was more than 25000 nM.
Consider `Cn1cc2c(c1C(=O)Nc1ccc(F)c(F)c1)OCC(C)(Cc1cccnc1)NS2(=O)=O` (single isomer, unassigned) [Compound 199b, N-(3,4-difluorophenyl)-3,7-dimethyl-1,1-dioxo-3-(3-pyridylmethyl)-2,4-dihydropyrrolo[3,4-b][1,4,5]oxathiazepine-6-carboxamide], for which the EC50 in the data set with HBV amounted to 8 nM. Also, in the data set with HepG2 cells, the CC50 is more than 25000 nM.
For `Cn1cc2c(c1C(=O)Nc1ccc(F)c(C(F)F)c1)OC[C@H](C(O)C1CC1)NS2(=O)=O` (stereo partly drawn) [Compound 115b, (3R)-3-[cyclopropyl(hydroxy)methyl]-N-[3-(difluoromethyl)-4-fluoro-phenyl]-7-methyl-1,1-dioxo-3,4-dihydro-2H-pyrrolo[3,4-b][1,4,5]oxathiazepine-6-carboxamide], the EC50 in the data set on HBV worked out at 7 nM. For the same compound, the CC50 in the data set on HepG2 cells was more than 25000 nM.
On to `Cn1cc2c(c1C(=O)Nc1ccc(F)c(C#N)c1)OC[C@H](C(O)C1CC1)NS2(=O)=O` (stereo partly drawn) [Compound 120b, (3R)—N-(3-cyano-4-fluoro-phenyl)-3-[cyclopropyl(hydroxy)methyl]-7-methyl-1,1-dioxo-3,4-dihydro-2H-pyrrolo[3,4-b][1,4,5]oxathiazepine-6-carboxamide], for which the EC50 with HBV amounted to 11 nM. Moreover, the CC50 in the data set with HepG2 cells was more than 25000 nM.
